In patent US20180118721A1, “PYRIMIDINE DERIVATIVES” (Merck Patent GmbH, priority 2015, published 2018) one finds IC50, Kd and residence time data, which are given here for 25 molecules.

In assay [1] the target is T1, purified human recombinant MTH1 (human MTH1, residues 42-197) (Homo sapiens, UniProt P36639).
T1 construct: human MTH1, residues 42-197, Uniprot-ID: P36639, expressed in E. coli; made in house; host or cells: E. coli
The assay is described as follows: MTH1 enzymatic assay (luminescence-based, PPiLight). The assay is classed as biochemical. As to conditions: 6 μM 8-oxo-dGTP, Table 1, grouped. Here is the method: The IC50 value was determined by a MTH1 enzymatic assay. The assay comprises the principal steps of incubating a mixture of MTH1, the compound in question at different concentrations and 8-oxo-2′-deoxyguanosine-5′-triphosphate (8-oxo-dGTP) in assay buffer. Nucleotide triphosphate hydrolysis by MTH1, i.e. decomposition of 8-oxo-2′-deoxyguanosine-5′-triphosphate, produces 8-oxo-2′-deoxyguanosine-5′-monophosphate (8-oxo-dGMP) and pyrophosphate (PPi). The amount of generated pyrophosphate (PPi) is then measured by a bioluminescent reaction. In detail: The MTH1 (human mutT homologue 1) enzymatic assay is performed as a luminescence-based 384-well assay. […] The assay buffer contains 100 mM Tris-acetate pH 7.5, 40 mM NaCl, 10 mM Mg(OAc)2, 0.005% Tween 20 and 2 mM dithiothreitol (DTT). […] Then, in a second step, the substrate 8-oxo-dGTP is added and the reaction mixture is incubated for 30 minutes at 22° C. The pharmacologically relevant assay volume is 5 PI. The final concentrations in the assay during incubation of the reaction mixture are 0.1-0.2 nM, typically 0.1 nM, MTH1 and 6 μM 8-oxo-dGTP. After incubation of the reaction mixture, the generation of pyrophosphate (PPi) as a result of nucleotide triphosphate (8-oxo-dGTP) hydrolysis by MTH1 is detected using the PPiLight inorganic pyrophosphate assay kit (Lonza) (third step). 2 to 5 μl, such as 3 to 5 μl, typically 3 or 4 μl, for instance 4 μl, of a 1:1 mixture of PPiLight converting reagent (AMP) and PPiLight detection reagent are added to the reaction mixture. In the presence of pyrophosphate, the detection reagent catalyzes the conversion of AMP to ATP. Luciferase then produces light from the newly formed ATP and luciferin. The amount of light produced is directly proportional to the amount of PPi in the sample. Following signal development for 1 h the plates are analysed in an EnVision (PerkinElmer) microplate reader using the ultra sensitive luminescence option. Data are processed employing the Genedata Screener software. In particular, IC50 values are determined in the usual manner (using the Hill Equation) by fitting a dose-response curve to the data points using nonlinear regression analysis.
Hill Equation: Y=S0+(Sinf−S0)/(1+(10^logIC50/10^c)^n); Y: luminescence signal (response), S0: activity level at zero concentration of test compound, Sinf=activity level at infinite concentration, Hill coefficient n=measure of the slope at IC50, c=concentration in logarithmic units corresponding to the values on the x-axis of the dose response curve plot

In assay [2] the target is T2, humanMTH1 (aminoacids 42 to 197) (Homo sapiens, UniProt P36639).
T2 construct: humanMTH1 (aminoacids 42 to 197); His tag at the N-terminus; purchased Abnova ab99390; host or cells: E. coli
In words: Binding affinities and kinetics on MTH1 surfaces by surface plasmon resonance (SPR). The conditions noted are these: for Kd: SPR, Biacore4000, 25° C., Table 1, grouped, read-out: KD IC50; for residence time: on MTH1, calculated on the basis of the KD values, read-out: Residence time. Here is the method:
The SPR experiments were performed using a Biacore4000 instrument. […] HumanMTH1 was immobilized on Biacore CM5 chips at 25° C. and a flow rate of 10 μL/min using amine coupling at pH 5.5 and in presence of 1 μM MSC2567771B-1 according to Biacore's standard protocol. MTH1 was applied at a concentration of 10 μg/mL and depending on the duration of the injection time immobilization levels between 500 and 2,000 RU were obtained. Sample compounds were applied in form of titration series with a doubling of concentration at each subsequent injection. In general, 10 concentrations were injected covering a dilution range of 500 fold. Before and after each of these titration series the binding capability of the surface was controlled by the injection of the positive control S-Crizotinib at a fixed concentration of 2 μM. Kinetic titration experiments were performed at 25° C. with a flow rate of 30 μL/min, a sample contact time of 90 sec and a dissociation time of 420 sec in running buffer (20 mM Tris-HCl (Tris(hydroxymethyl)-aminomethane HCl) pH 7.40, 150 mM NaCl, 5 mM MgCl2, 1 mM DTT (dithiothreitol), 0.1 mM EGTA (ethylene glycol tetraacetic acid), 0.05% Tween 20) containing 2% DMSO (dimethyl sulfoxide). Buffer injections identical to the sample injections were executed at the beginning of the successive series for the purpose of double referencing. Solvent correction cycles (eight correction points, 1.4%-2.8% DMSO) were run at the same intervals. For surface conditioning ten start-up cycles (buffer injections) were run. Data points were collected at a sample rate of 10 Hz.
Data sets were processed and analyzed using the software Biacore4000 Evaluation, version 1.0. Solvent corrected and double-referenced association and dissociation phase data were fitted to a simple 1:1 interaction model with mass transport limitations.
Measured values are indicated as KD IC50 in the Table below.

On to `Nc1nc(NC2CC2)cc(N2CCC[C@H]2Cc2ccccc2Cl)n1` [Example 48, 6-[(S)-2-(2-Chloro-benzyl)-pyrrolidin-1-yl]-N4-cyclopropyl-pyrimidine-2,4-diamine], for which, in assay [1], the IC50 (commonly the concentration at which inhibition is half-maximal) was in the range of 1 to 100 nM. Besides, the Kd (commonly the constant that tells how readily two partners part at equilibrium) in assay [2] lay in the range of 1 to 100 nM.

Regarding `Nc1nc(NC2CC2)cc(N2CC[C@@](O)(C(F)(F)F)C2)n1` [Example 49, (S)-1-(2-Amino-6-cyclopropylamino-pyrimidin-4-yl)-3-trifluoromethyl-pyrrolidin-3-ol], the IC50 in assay [1] was < 1 nM. Moreover, the dissociation constant (Kd) in assay [2] lay within 1 to 100 nM.

As to `Nc1nc(NC2CC2)cc(N2CC[C@](O)(C(F)(F)F)C2)n1` [Example 50, (R)-1-(2-Amino-6-cyclopropylamino-pyrimidin-4-yl)-3-trifluoromethyl-pyrrolidin-3-ol], the IC50 in assay [1] was in the range of 1 to 100 nM. Besides, in assay [2], the Kd lay within 1 to 100 nM.

On to `Nc1nc(NC2CC2)cc(N2CCCc3ccccc32)n1` [Example 51, N4-Cyclopropyl-6-(3,4-dihydro-2H-quinolin-1-yl)-pyrimidine-2,4-diamine], for which the IC50 in assay [1] was < 1 nM. For the same molecule, in assay [2], the Kd lay within 1 to 100 nM.

Regarding `C[C@@]1(O)CCN(c2cc(NC3CC3)nc(N)n2)C1` [Example 52, (R)-1-(2-Amino-6-cyclopropylamino-pyrimidin-4-yl)-3-methyl-pyrrolidin-3-ol], the IC50 in assay [1] lay in the range of 1 to 100 nM. Moreover, in assay [2], the Kd was 1 to 100 nM.

On to `C[C@]1(O)CCN(c2cc(NC3CC3)nc(N)n2)C1` [Example 53, (S)-1-(2-Amino-6-cyclopropylamino-pyrimidin-4-yl)-3-methyl-pyrrolidin-3-ol], for which the IC50 in assay [1] was in the range of 1 to 100 nM. Besides, in assay [2], the Kd was in the range of 1 to 100 nM.

Consider `CC1Cc2ccccc2N1c1cc(NC2CC2)nc(N)n1` (centres unmarked) [Example 58, N4-Cyclopropyl-6-(2-methyl-2,3-dihydro-indol-1-yl)-pyrimidine-2,4-diamine], for which, in assay [1], the IC50 was 1 to 100 nM. Further, the Kd in assay [2] lay within 1 to 100 nM.

For the molecule `CNc1cc(N2CC[C@H](O)C2)nc(N)n1` [Example 62, (S)-1-(2-Amino-6-methylamino-pyrimidin-4-yl)-pyrrolidin-3-ol], the IC50 in assay [1] is 1 to 100 nM. In addition, in assay [2], the Kd is 1 to 100 nM.

Regarding `Nc1nc2c(c(N3CCC(F)(F)C3)n1)CCCN2` [Example 63, 4-(3,3-Difluoro-pyrrolidin-1-yl)-5,6,7,8-tetrahydro-pyrido[2,3-d]pyrimidin-2-ylamine], the IC50 in assay [1] was < 1 nM. In addition, the Kd in assay [2] lay in the range of 1 to 100 nM.

In the case of `Nc1nc(NCC2CCCC2)cc(N2CCC(F)(F)C2)n1` [Example 76, N4-Cyclopentylmethyl-6-(3,3-difluoro-pyrrolidin-1-yl)-pyrimidine-2,4-diamine], the IC50 in assay [1] fell in the range of 1 to 100 nM. Further, the Kd in assay [2] is 1 to 100 nM.

`COc1ccccc1CCNc1cc(N2CCC(F)(F)C2)nc(N)n1` [Example 77, 6-(3,3-Difluoro-pyrrolidin-1-yl)-N4-[2-(2-methoxy-phenyl)-ethyl]-pyrimidine-2,4-diamine]: in assay [1], the IC50 lay in the range of 1 to 100 nM. In assay [2], the Kd was 1 to 100 nM.

On to `NC(=O)[C@H]1CCN(c2nc(N)nc3c2CCCN3)C1` [Example 78, (S)-1-(2-Amino-5,6,7,8-tetrahydro-pyrido[2,3-d]pyrimidin-4-yl)-pyrrolidine-3-carboxylic acid amide-formiate], for which the IC50 in assay [1] was < 1 nM. In addition, the Kd in assay [2] was 1 to 100 nM.

Take `CNc1cc(N2CCCCC2c2cc3ccccc3o2)nc(N)n1` (centres unmarked) [Example 81, 6-(2-Benzofuran-2-yl-piperidin-1-yl)-N4-methyl-pyrimidine-2,4-diamine]: in assay [1], the IC50 was < 1 nM. Further, the Kd in assay [2] was 1 to 100 nM.

As to `CNc1cc(N2CCCC2Cc2ccc(Cl)cc2)nc(N)n1` (centres unmarked) [Example 84, 6-[2-(4-Chloro-benzyl)-pyrrolidin-1-yl]-N4-methyl-pyrimidine-2,4-diamine], the IC50 in assay [1] was < 1 nM. In assay [2], the Kd is 1 to 100 nM.

As for `CNc1cc(N2CCCC2Cc2cccc(Cl)c2)nc(N)n1` (centres unmarked) [Example 85, 6-[2-(3-Chloro-benzyl)-pyrrolidin-1-yl]-N4-methyl-pyrimidine-2,4-diamine], the IC50 in assay [1] is < 1 nM. Besides, in assay [2], the dissociation constant Kd is < 1 nM.

For the molecule `Nc1nc(NC2CC2)cc(N2C[C@H](O)CC2=O)n1` [Example 86, (R)-1-(2-Amino-6-cyclopropylamino-pyrimidin-4-yl)-4-hydroxy-pyrrolidin-2-one], the IC50 in assay [1] was > 100 nM. For the same molecule, the Kd in assay [2] is > 100 nM.

As to `CCCCOC(=O)CC1CCCN1c1cc(NC2CC2)nc(N)n1` (centres unmarked) [Example 87, [1-(2-Amino-6-cyclopropylamino-pyrimidin-4-yl)-pyrrolidin-2-yl]-acetic acid butyl ester], the IC50 in assay [1] is 1 to 100 nM. Also, the Kd in assay [2] was in the range of 1 to 100 nM.

In the case of `Nc1nc(NC2CC2)cc(N2CCCC2C(=O)NCc2ccccc2Cl)n1` (centres unmarked) [Example 88, 1-(2-Amino-6-cyclopropylamino-pyrimidin-4-yl)-pyrrolidine-2-carboxylic acid 2-chloro-benzylamide], in assay [1], the IC50 is > 100 nM. Besides, in assay [2], the Kd is > 100 nM.

As for `CNc1cc(N2CCC[C@H]2Cc2ccccc2OC)nc(N)n1` [Example 92, 6-[(S)-2-(2-Methoxy-benzyl)-pyrrolidin-1-yl]-N4-methyl-pyrimidine-2,4-diamine], the IC50 in assay [1] is < 1 nM. For the same molecule, in assay [2], the residence time (commonly how long the partners stay bound on average) is ≥ 10 min.

With `Nc1nc(NC2CC2)cc(N2CCCC2=O)n1` [Example 94, 1-(2-Amino-6-cyclopropylamino-pyrimidin-4-yl)-pyrrolidin-2-one], in assay [1], the 50% inhibitory concentration (IC50) is > 100 nM. In assay [2], the Kd was > 100 nM.

In the case of `CNc1cc(N2CCCCC2Cc2ccc(OC)cc2)nc(N)n1` (centres unmarked) [Example 95, 6-[2-(4-Methoxy-benzyl)-piperidin-1-yl]-N4-methyl-pyrimidine-2,4-diamine], the half-maximal inhibitory concentration (IC50) in assay [1] was < 1 nM. Besides, the residence time in assay [2] was ≥ 10 min.

For the molecule `Nc1nc(NC2CC2)cc(N2CCCC2CC(=O)O)n1` (centres unmarked) [Example 97, [1-(2-Amino-6-cyclopropylamino-pyrimidin-4-yl)-pyrrolidin-2-yl]acetic acid], the IC50 in assay [1] was in the range of 1 to 100 nM. Besides, in assay [2], the Kd is > 100 nM.

Take `CNc1cc(N2CCCC2Cc2ccccc2Cl)nc(N)n1` (centres unmarked) [Example 98, 6-[2-(2-Chloro-benzyl)-pyrrolidin-1-yl]-N4-methyl-pyrimidine-2,4-diamine]: the half-maximal inhibitory concentration (IC50) in assay [1] is < 1 nM. Also, in assay [2], the Kd was 1 to 100 nM and the residence time was ≥ 10 min.

Regarding `CNc1cc(N2CCCCC2Cc2ccccc2OC)nc(N)n1` (centres unmarked) [Example 100, 6-[2-(2-Methoxy-benzyl)-piperidin-1-yl]-N4-methyl-pyrimidine-2,4-diamine], in assay [1], the IC50 was < 1 nM. In assay [2], the Kd was in the range of 1 to 100 nM and the residence time is ≥ 10 min.

Turning to `CNc1cc(N2CCCCC2Cc2ccccc2Cl)nc(N)n1` (centres unmarked) [Example 105, 6-[2-(2-Chloro-benzyl)-piperidin-1-yl]-N4-methyl-pyrimidine-2,4-diamine], the IC50 in assay [1] was < 1 nM. Also, in assay [2], the Kd is 1 to 100 nM and the residence time is ≥ 10 min.
